Test systems include A549 NSCLC; COLO 205 colon; HCT-116 colon; HCT-15 colon; K-562 leukemia; KM12 colon; LOX IMVI melanoma; M14 melanoma; MDA-MB-231 breast; NCI-H522 lung; OVCAR-3 ovarian; OVCAR-5 ovarian; OVCAR-8 ovarian; PC-3 prostate; SF-295 CNS; SK-MEL-2 melanoma; U251 CNS; UACC-62 melanoma; BT-549 breast.
Test in all cases: DTP human tumour cell line panel, 48 h

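Tested at 5 concentrations; 48 h exposure; 96-well plates; endpoints linearly interpolated, else capped at highest concentration. The concentration for full growth arrest is given as TGI.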 A value given as a limit tells only on which side of the number the result lay.

For the molecule `CSC1=N/C(=C\c2ccc(C)cc2)C(=O)N1CN1CCOCC1`, the TGI in the test with A549 NSCLC, in the test with COLO 205 colon, in the test on HCT-116 colon, in the test with HCT-15 colon, in the test on K-562 leukemia and in the test on KM12 colon was greater than 100 µM in each case. For the same molecule, the TGI in the test on LOX IMVI melanoma, in the test with M14 melanoma, with MDA-MB-231 breast, in the test on NCI-H522 lung, in the test on OVCAR-3 ovarian and in the test on OVCAR-5 ovarian was greater than 100 µM each time. The TGI in the test on OVCAR-8 ovarian, in the test on PC-3 prostate, in the test with SF-295 CNS, in the test with SK-MEL-2 melanoma, in the test on U251 CNS and in the test on UACC-62 melanoma was greater than 100 µM throughout.

As for `CC(C)=CCC[C@]1(C)CC[C@]2(C)C3CCC(=C(C)C)[C@@H](CCCO)[C@]3(C)CC[C@@]2(C)C1` (some centres not stated), the TGI in the test with A549 NSCLC, in the test on BT-549 breast, with COLO 205 colon, in the test with HCT-116 colon, in the test with HCT-15 colon and in the test with KM12 colon was greater than 100 µM in each case. Besides, the TGI in the test on M14 melanoma is greater than 100 µM; in the test on MDA-MB-231 breast, greater than 100 µM; in the test on NCI-H522 lung, 37.2 µM; in the test on OVCAR-3 ovarian, greater than 100 µM; with OVCAR-5 ovarian, greater than 100 µM; in the test on OVCAR-8 ovarian, greater than 100 µM. Besides, the TGI was greater than 100 µM in the test with PC-3 prostate; greater than 100 µM in the test with SF-295 CNS; 71.5 µM with SK-MEL-2 melanoma; 61.4 µM with U251 CNS; greater than 100 µM with UACC-62 melanoma.

`O=c1[nH]c2ccc(C(F)(F)F)cc2nc1-c1ccccc1`: the TGI with A549 NSCLC, in the test on BT-549 breast, with COLO 205 colon, in the test with HCT-116 colon, in the test with HCT-15 colon and with K-562 leukemia was greater than 100 µM in each case. Moreover, the TGI in the test with LOX IMVI melanoma, in the test on M14 melanoma, in the test with MDA-MB-231 breast, with NCI-H522 lung, in the test with OVCAR-3 ovarian and with OVCAR-5 ovarian was greater than 100 µM each time. The TGI with OVCAR-8 ovarian, in the test on PC-3 prostate, with SF-295 CNS and in the test with UACC-62 melanoma was greater than 100 µM each time.

For the molecule `NCc1ccc(-c2ccc(-c3ccc(-c4ccc(CN)s4)s3)s2)s1`, the TGI in the test on A549 NSCLC, with COLO 205 colon, with HCT-116 colon, in the test on HCT-15 colon, with K-562 leukemia and with KM12 colon was greater than 100 µM in each case. Also, the TGI in the test on LOX IMVI melanoma, in the test with M14 melanoma, in the test on MDA-MB-231 breast, in the test on NCI-H522 lung, in the test with OVCAR-3 ovarian and in the test with OVCAR-5 ovarian was greater than 100 µM each time. The TGI in the test on OVCAR-8 ovarian, with PC-3 prostate, in the test on SF-295 CNS, in the test with SK-MEL-2 melanoma, in the test on U251 CNS and with UACC-62 melanoma was greater than 100 µM throughout.

Turning to `CSc1ccc2c(cc1=O)[C@@H](NC(C)=O)CCc1cc(O)c(O)c(O)c1-2`, the TGI with A549 NSCLC was 45 µM; with BT-549 breast, 56.9 µM; in the test on COLO 205 colon, greater than 100 µM; in the test on HCT-116 colon it was greater than 100 µM; with HCT-15 colon it was 34.2 µM; with KM12 colon, 41.4 µM. Moreover, the TGI is greater than 100 µM in the test with LOX IMVI melanoma; 36 µM in the test on M14 melanoma; 72.2 µM with MDA-MB-231 breast; 39.3 µM in the test on NCI-H522 lung; 34.2 µM with OVCAR-3 ovarian; 35.9 µM with OVCAR-5 ovarian. Also, the TGI with OVCAR-8 ovarian is 42.3 µM; with PC-3 prostate, greater than 100 µM; with SF-295 CNS it was 31.2 µM; in the test with SK-MEL-2 melanoma, greater than 100 µM; with U251 CNS, 45.3 µM; in the test with UACC-62 melanoma, greater than 100 µM.

Regarding `CCOC(=O)CC(=O)NC1CC2CCC1(C)C2(C)C` (configuration not stated), the TGI with A549 NSCLC, in the test with BT-549 breast, with COLO 205 colon, in the test with HCT-116 colon, in the test on HCT-15 colon and with K-562 leukemia was greater than 100 µM in each case. For the same molecule, the TGI in the test with KM12 colon, in the test on LOX IMVI melanoma, in the test on M14 melanoma, in the test on MDA-MB-231 breast, in the test with OVCAR-3 ovarian and with OVCAR-5 ovarian was greater than 100 µM each time. Moreover, the TGI with OVCAR-8 ovarian, with PC-3 prostate, in the test on SF-295 CNS, in the test with U251 CNS and with UACC-62 melanoma was greater than 100 µM each time.

In the case of `Cc1[nH]c2ncn3nc(C(Cl)(Cl)Cl)nc3c2c1Cc1ccccc1`, the TGI with A549 NSCLC, in the test on BT-549 breast, with COLO 205 colon, in the test on HCT-116 colon, with HCT-15 colon and with KM12 colon was greater than 100 µM each time. For the same molecule, the concentration for total growth inhibition (TGI) in the test on M14 melanoma, with MDA-MB-231 breast, with NCI-H522 lung, in the test with OVCAR-3 ovarian, in the test with OVCAR-5 ovarian and with OVCAR-8 ovarian was greater than 100 µM each time. For the same molecule, the concentration for total growth inhibition (TGI) in the test on PC-3 prostate, in the test on SF-295 CNS, with SK-MEL-2 melanoma, in the test with U251 CNS and in the test on UACC-62 melanoma was greater than 100 µM throughout.

Take `CC(C)(C)OC(=O)[N+](=N)C(=O)C1CCC(=O)N1C(=O)OCc1ccccc1` (configuration not stated): the TGI in the test with A549 NSCLC, in the test on BT-549 breast, in the test on COLO 205 colon, in the test with HCT-116 colon, in the test with K-562 leukemia and in the test on KM12 colon was greater than 100 µM each time. Besides, the TGI in the test with LOX IMVI melanoma, with M14 melanoma, with MDA-MB-231 breast, in the test on NCI-H522 lung, in the test with OVCAR-3 ovarian and in the test with OVCAR-5 ovarian was greater than 100 µM throughout. Also, the TGI in the test with OVCAR-8 ovarian, in the test with PC-3 prostate, in the test with SF-295 CNS, in the test with U251 CNS and in the test with UACC-62 melanoma was greater than 100 µM throughout.

Regarding `CCOC(=O)c1c(C)n(Cc2ccccc2)c(=O)c2ccccc2c(=O)c2c(=O)ccc(=O)c1=2`, the TGI with A549 NSCLC is greater than 100 µM; in the test with COLO 205 colon, greater than 100 µM; in the test with HCT-116 colon, 46.8 µM; in the test on HCT-15 colon, greater than 100 µM; in the test with K-562 leukemia, greater than 100 µM; in the test with KM12 colon, greater than 100 µM. The TGI is 53.5 µM in the test on LOX IMVI melanoma; greater than 100 µM with M14 melanoma; greater than 100 µM in the test on MDA-MB-231 breast; 62.8 µM in the test on NCI-H522 lung; greater than 100 µM in the test on OVCAR-3 ovarian; greater than 100 µM in the test with OVCAR-5 ovarian. The TGI in the test on OVCAR-8 ovarian, with PC-3 prostate, with SF-295 CNS, with SK-MEL-2 melanoma, in the test on U251 CNS and in the test with UACC-62 melanoma was greater than 100 µM throughout.

With `CCN(CC)CCn1c(C(C)(C)C)nc2ccccc21`, the TGI in the test on A549 NSCLC, in the test with BT-549 breast, in the test on COLO 205 colon, in the test with HCT-116 colon, in the test on HCT-15 colon and with K-562 leukemia was greater than 100 µM throughout. In addition, the TGI with KM12 colon, in the test on M14 melanoma, in the test with NCI-H522 lung, in the test with OVCAR-3 ovarian, with OVCAR-5 ovarian and in the test on OVCAR-8 ovarian was greater than 100 µM throughout. Besides, the concentration for total growth inhibition (TGI) with PC-3 prostate, with SF-295 CNS, in the test with U251 CNS and in the test with UACC-62 melanoma was greater than 100 µM in each case.

Take `CN(C1=NCCO1)c1cccc2ccccc12`: the TGI in the test on A549 NSCLC, in the test with COLO 205 colon, in the test with HCT-116 colon, with HCT-15 colon, in the test with K-562 leukemia and in the test on KM12 colon was greater than 10 µM throughout. Moreover, the total growth inhibition concentration (TGI) in the test on LOX IMVI melanoma, in the test on M14 melanoma, in the test on MDA-MB-231 breast, in the test on NCI-H522 lung, with OVCAR-3 ovarian and with OVCAR-5 ovarian was greater than 10 µM in each case. Moreover, the TGI in the test on OVCAR-8 ovarian, in the test on PC-3 prostate, in the test with SF-295 CNS, in the test on SK-MEL-2 melanoma, with U251 CNS and in the test with UACC-62 melanoma was greater than 10 µM throughout.

Regarding `CN(C)CCCNc1c(O)c2c(c(O)c1Cl)C(=O)C=CC2=O`, the TGI is 3.52 µM in the test with A549 NSCLC; 2.94 µM with BT-549 breast; 3.07 µM in the test on COLO 205 colon; 5.1 µM in the test on HCT-116 colon; 3.28 µM with HCT-15 colon; greater than 10 µM with K-562 leukemia. For the same molecule, the TGI was greater than 10 µM in the test on KM12 colon; 3.13 µM with LOX IMVI melanoma; 2.9 µM in the test with M14 melanoma; 7.77 µM in the test on MDA-MB-231 breast; 6.6 µM in the test with OVCAR-3 ovarian; 3 µM in the test with OVCAR-5 ovarian. Besides, the TGI with OVCAR-8 ovarian turned out to be 9.69 µM; with PC-3 prostate it was 6.83 µM; in the test on SF-295 CNS, 3.27 µM; in the test on U251 CNS, 3.46 µM; in the test on UACC-62 melanoma it was 3.18 µM.

The record behind these values is PubChem BioAssay (NCI).
